Laboratory results from patent publication US11492335B2, “Aryl or heteroaryl triazolone derivatives or salts thereof, or pharmaceutical compositions comprising the same” (YUHAN CORPORATION, priority 2018, dated 2022).
Counter-ions that a name gives are not always drawn.

Columns and labels:
Type in all cases: biochemical
recombinant human VAP-1 = molecular target: T1, recombinant human VAP-1 (Homo sapiens, UniProt Q16853); assay: Activity on recombinant human VAP-1, Amplex Red HRP-coupled hydrogen peroxide assay, benzylamine substrate; conditions: recombinant human VAP-1, benzylamine substrate; read-out: Inhibitory Activity (IC50, nM) human VAP-1
T1 construct: purchased R&D systems
T1 sequence (Q16853 1-763): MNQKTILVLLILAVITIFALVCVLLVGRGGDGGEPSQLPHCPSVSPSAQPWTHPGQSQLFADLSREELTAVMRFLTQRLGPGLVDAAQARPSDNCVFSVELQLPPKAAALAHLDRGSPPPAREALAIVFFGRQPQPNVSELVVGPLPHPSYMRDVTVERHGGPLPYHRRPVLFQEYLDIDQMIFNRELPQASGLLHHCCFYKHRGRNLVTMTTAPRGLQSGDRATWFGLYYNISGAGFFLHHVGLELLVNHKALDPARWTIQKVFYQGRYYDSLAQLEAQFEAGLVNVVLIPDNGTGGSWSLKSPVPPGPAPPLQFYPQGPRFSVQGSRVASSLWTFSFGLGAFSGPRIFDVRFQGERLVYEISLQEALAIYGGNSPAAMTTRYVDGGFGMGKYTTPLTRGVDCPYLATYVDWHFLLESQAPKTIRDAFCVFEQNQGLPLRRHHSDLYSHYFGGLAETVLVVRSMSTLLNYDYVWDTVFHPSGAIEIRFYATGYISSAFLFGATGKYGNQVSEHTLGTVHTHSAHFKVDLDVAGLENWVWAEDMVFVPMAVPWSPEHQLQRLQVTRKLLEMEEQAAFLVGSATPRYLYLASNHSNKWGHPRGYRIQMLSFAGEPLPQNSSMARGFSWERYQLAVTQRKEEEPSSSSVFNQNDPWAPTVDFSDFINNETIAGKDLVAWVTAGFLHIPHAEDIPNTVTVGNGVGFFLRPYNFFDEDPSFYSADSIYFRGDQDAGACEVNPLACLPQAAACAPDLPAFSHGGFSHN
In short: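 Dose-response IC50 determined from reduction in resorufin signal rate (544/590 nm, 1-2 h), with 30 min compound preincubation at 37 °C and 1 mM benzylamine as substrate.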

[1] = molecular target: T2, recombinant human MAO-A (monoamine oxidase-A) (Homo sapiens, UniProt P21397); assay: Activity on recombinant human MAO-A, Amplex Red method, 0.5 mM tyramine substrate; conditions: 0.5 mM tyramine substrate, read-out: Inhibitory Activity (IC50, nM) MAO-A
T2 construct: purchased Sigma-Aldrich
T2 sequence (P21397 1-527): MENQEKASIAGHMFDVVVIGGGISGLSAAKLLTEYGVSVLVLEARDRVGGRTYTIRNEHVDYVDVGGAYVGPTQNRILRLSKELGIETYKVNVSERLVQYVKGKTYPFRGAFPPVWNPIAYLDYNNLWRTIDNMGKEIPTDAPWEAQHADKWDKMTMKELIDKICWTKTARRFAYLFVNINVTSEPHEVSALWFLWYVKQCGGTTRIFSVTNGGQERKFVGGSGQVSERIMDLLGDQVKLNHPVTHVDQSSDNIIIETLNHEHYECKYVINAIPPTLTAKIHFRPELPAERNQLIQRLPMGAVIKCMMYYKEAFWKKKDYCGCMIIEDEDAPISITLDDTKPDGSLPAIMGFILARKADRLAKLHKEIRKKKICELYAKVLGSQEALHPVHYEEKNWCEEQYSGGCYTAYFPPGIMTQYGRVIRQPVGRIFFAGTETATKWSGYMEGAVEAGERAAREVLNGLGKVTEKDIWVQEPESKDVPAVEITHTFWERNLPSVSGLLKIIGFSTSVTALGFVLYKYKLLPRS
In short: (§1)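 Amplex Red/HRP coupled read-out of H2O2 with 0.5 mM tyramine for MAO-A or 1 mM benzylamine for MAO-B, following a 30-min compound–enzyme preincubation at 37° C. IC50 from percent inhibition of signal rate relative to uninhibited control.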

[2] = molecular target: T3, recombinant human MAO-B (monoamine oxidase-B) (Homo sapiens, UniProt P27338); assay: Activity on recombinant human MAO-B, Amplex Red method, 1 mM benzylamine substrate; conditions: 1 mM benzylamine substrate, read-out: Inhibitory Activity (IC50, nM) MAO-B
T3 construct: purchased Sigma-Aldrich
T3 sequence (P27338 1-520): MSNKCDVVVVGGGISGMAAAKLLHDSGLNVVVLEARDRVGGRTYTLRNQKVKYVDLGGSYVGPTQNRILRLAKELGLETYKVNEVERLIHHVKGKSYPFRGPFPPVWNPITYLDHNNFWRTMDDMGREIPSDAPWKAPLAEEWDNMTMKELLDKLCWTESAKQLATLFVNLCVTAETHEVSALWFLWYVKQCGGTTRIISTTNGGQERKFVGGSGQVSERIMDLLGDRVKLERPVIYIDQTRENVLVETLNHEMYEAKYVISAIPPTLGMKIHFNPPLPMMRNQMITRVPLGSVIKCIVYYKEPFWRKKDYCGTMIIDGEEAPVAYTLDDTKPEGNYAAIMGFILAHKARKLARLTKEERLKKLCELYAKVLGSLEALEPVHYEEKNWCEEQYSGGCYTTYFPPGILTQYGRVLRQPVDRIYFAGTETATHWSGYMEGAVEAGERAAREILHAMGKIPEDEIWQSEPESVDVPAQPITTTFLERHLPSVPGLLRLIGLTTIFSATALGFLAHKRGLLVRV
In short: as §1

[3] = molecular target: T4, recombinant human DAO (diamine oxidase) (Homo sapiens, UniProt P19801); assay: Activity on recombinant human DAO, Amplex Red method, 1 mM putrescine substrate; conditions: recombinant human DAO, 1 mM putrescine substrate; read-out: Inhibitory Activity (IC50, nM) DAO
T4 construct: purchased R&D systems
T4 sequence (P19801 20-751): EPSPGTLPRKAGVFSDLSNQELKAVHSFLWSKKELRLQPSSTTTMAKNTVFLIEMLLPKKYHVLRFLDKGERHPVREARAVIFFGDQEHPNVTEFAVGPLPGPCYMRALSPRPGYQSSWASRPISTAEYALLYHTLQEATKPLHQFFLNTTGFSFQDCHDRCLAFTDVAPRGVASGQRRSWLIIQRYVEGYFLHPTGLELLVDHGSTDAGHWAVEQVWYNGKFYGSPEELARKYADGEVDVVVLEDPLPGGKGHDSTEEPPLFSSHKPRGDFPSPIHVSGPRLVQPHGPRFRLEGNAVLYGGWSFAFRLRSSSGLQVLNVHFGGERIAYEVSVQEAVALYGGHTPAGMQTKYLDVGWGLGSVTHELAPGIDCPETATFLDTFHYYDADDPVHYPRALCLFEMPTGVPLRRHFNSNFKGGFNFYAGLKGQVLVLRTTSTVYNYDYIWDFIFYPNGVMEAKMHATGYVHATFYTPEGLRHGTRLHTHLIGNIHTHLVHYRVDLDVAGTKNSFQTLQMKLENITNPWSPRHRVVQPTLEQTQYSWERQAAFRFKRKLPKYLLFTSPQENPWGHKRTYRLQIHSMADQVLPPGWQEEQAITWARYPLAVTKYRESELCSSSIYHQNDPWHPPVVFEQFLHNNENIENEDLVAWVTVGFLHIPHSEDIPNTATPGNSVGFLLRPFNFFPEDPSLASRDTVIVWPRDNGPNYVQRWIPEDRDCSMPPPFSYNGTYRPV
In short: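 Inhibition of recombinant human DAO (diamine oxidase, R&D systems) was assessed with the Amplex Red Hydrogen Peroxide Assay Kit. Hydrogen peroxide produced from 1 mM putrescine was detected through an HRP-coupled reaction that converts Amplex Red into fluorescent resorufin, read at 544 nm excitation and 590 nm emission. IC50 values came from four-parameter logistic fits in GraphPad Prism.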

Structure (SMILES) | IC50 (recombinant human VAP-1) [nM] | IC50 [1] [nM] | IC50 [2] [nM] | IC50 [3] [nM]
CC(C)c1nc(-c2ccc(-c3cc(-n4cnn(C/C(=C/F)CN)c4=O)ccn3)cc2)no1 [Example 205, 2-[(2E)-2-(aminomethyl)-3-fluoroprop-2-en-1-yl]-4-(2-{4-[5-(propan-2-yl)-1,2,4-oxadiazol-3-yl]phenyl}pyridin-4-yl)-2,4-dihydro-3H-1,2,4-triazol-3-one hydrochloride] | 1 | > 100000 | 240 | < 10
CC(C)c1nc(-c2cccc(-c3cc(-n4cnn(C/C(=C/F)CN)c4=O)ccn3)c2)no1 [Example 206, 2-[(2E)-2-(aminomethyl)-3-fluoroprop-2-en-1-yl]-4-(2-{3-[5-(propan-2-yl)-1,2,4-oxadiazol-3-yl]phenyl}pyridin-4-yl)-2,4-dihydro-3H-1,2,4-triazol-3-one hydrochloride] | 0.7 | > 100000 | 110 | < 10
NC/C(=C\F)Cn1ncn(-c2ccnc(-c3ccc4c(c3)OCO4)c2)c1=O [Example 209, 2-[(2E)-2-(aminomethyl)-3-fluoroprop-2-en-1-yl]-4-[2-(1,3-benzodioxol-5-yl)pyridin-4-yl]-2,4-dihydro-3H-1,2,4-triazol-3-one hydrochloride] | 0.63 | > 100000 | 17 | < 10
Cc1ccc(-c2cccc(-c3noc(C4CC4)n3)c2)nc1-n1cnn(C/C(=C/F)CN)c1=O [Example 210, 2-[(2E)-2-(aminomethyl)-3-fluoroprop-2-en-1-yl]-4-{6-[3-(5-cyclopropyl-1,2,4-oxadiazol-3-yl)phenyl]-3-methylpyridin-2-yl}-2,4-dihydro-3H-1,2,4-triazol-3-one hydrochloride] | 52 | > 100000 | > 10000 | 4400
Cc1ccc(-c2cc(C)c3c(c2)CCC(=O)N3)nc1-n1cnn(C/C(=C/F)CN)c1=O [Example 215, 6-(6-{1-[(2E)-2-(aminomethyl)-3-fluoroprop-2-en-1-yl]-5-oxo-1,5-dihydro-4H-1,2,4-triazol-4-yl}-5-methylpyridin-2-yl)-8-methyl-3,4-dihydroquinolin-2(1H)-one hydrochloride] | 14 | 96000 | 3500 | 290

Other lines, results leading:

IC50 (recombinant human VAP-1) [nM] | IC50 [1] [nM] | IC50 [2] [nM] | IC50 [3] [nM] | Structure (SMILES)
0.45 | > 100000 | 1400 | < 10 | NC/C(=C\F)Cn1ncn(-c2ccnc(-c3ccc(N4CCOCC4)cc3)c2)c1=O [Example 207, 2-[(2E)-2-(aminomethyl)-3-fluoroprop-2-en-1-yl]-4-{2-[4-(morpholin-4-yl)phenyl]pyridin-4-yl}-2,4-dihydro-3H-1,2,4-triazol-3-one hydrochloride]
0.89 | > 100000 | > 10000 | < 10 | NC/C(=C\F)Cn1ncn(-c2ccnc(-c3ccc(C(=O)N4CCOCC4)cc3)c2)c1=O [Example 208, 2-[(2E)-2-(aminomethyl)-3-fluoroprop-2-en-1-yl]-4-{2-[4-(morpholin-4-ylcarbonyl)phenyl]pyridin-4-yl}-2,4-dihydro-3H-1,2,4-triazol-3-one hydrochloride]
49 | > 100000 | > 10000 | 3500 | Cc1ccc(-c2ccc(C(=O)N3CCOCC3)cc2)nc1-n1cnn(C/C(=C/F)CN)c1=O [Example 211, 2-[(2E)-2-(aminomethyl)-3-fluoroprop-2-en-1-yl]-4-{3-methyl-6-[4-(morpholin-4-ylcarbonyl)phenyl]pyridin-2-yl}-2,4-dihydro-3H-1,2,4-triazol-3-one hydrochloride]
45 | > 100000 | > 10000 | 2200 | COc1ccc(-c2ccc(C)c(-n3cnn(C/C(=C/F)CN)c3=O)n2)cn1 [Example 212, 2-[(2E)-2-(aminomethyl)-3-fluoroprop-2-en-1-yl]-4-(6′-methoxy-5-methyl-2,3′-bipyridin-6-yl)-2,4-dihydro-3H-1,2,4-triazol-3-one hydrochloride]
29 | > 100000 | > 10000 | 1800 | Cc1ccc(-c2ccc3c(c2)OCO3)nc1-n1cnn(C/C(=C/F)CN)c1=O [Example 213, 2-[(2E)-2-(aminomethyl)-3-fluoroprop-2-en-1-yl]-4-[6-(1,3-benzodioxol-5-yl)-3-methylpyridin-2-yl]-2,4-dihydro-3H-1,2,4-triazol-3-one hydrochloride]
23 | > 100000 | > 100000 | 1400 | Cc1ccc(-c2ccc3cn[nH]c3c2)nc1-n1cnn(C/C(=C/F)CN)c1=O [Example 214, 2-[(2E)-2-(aminomethyl)-3-fluoroprop-2-en-1-yl]-4-[6-(1H-indazol-6-yl)-3-methylpyridin-2-yl]-2,4-dihydro-3H-1,2,4-triazol-3-one hydrochloride]
